Values quoted from earlier work, collected in patent US8877792B2, “Compositions for increasing solubility of azole drug compounds that are poorly soluble in water” (Dow Pharmaceutical Sciences, Inc., priority 2008, dated 2014).

Settings: background statement, cited from earlier work

Cc1ncc([N+](=O)[O-])n1CCO [Metronidazole, metronidazole]
aqueous solubility of metronidazole in water (room temperature): about 0.87 % w/w
limit of metronidazole concentration for physically stable solutions in water (solutions that can withstand cold temperatures encountered during shipping): about 0.7 % w/w
